In data set [1] the test system is Fadu cells. Put plainly: CellTiter-Glo luminescent cell viability assay, Fadu. Particulars: 72 h, 72 h, mean ± SD, n = 2; for viability at 2.8 µM / viability at 8.3 µM / viability at 25 µM: Homo sapiens, FaDu; for viability at 2.8 µM: read-out: Cell Viability (% of Control) 2.8 µM, Fadu; for viability at 8.3 µM: read-out: Cell Viability (% of Control) 8.3 µM, Fadu; for viability at 25 µM: read-out: Cell Viability (% of Control) 25 µM, Fadu; for Cell Viability (% of Control) 2.8 µM / Cell Viability (% of Control) 8.3 µM / Cell Viability (% of Control) 25 µM: Fadu. Background: ATP-based viability assays read luminescence as a measure of living cells.

Data set [2] has as its system PANC-1 cells. Put plainly: CellTiter-Glo luminescent cell viability assay, PANC-1. Conditions: 72 h, mean ± SD, n = 2; for viability at 2.8 µM / viability at 8.3 µM / viability at 25 µM: Homo sapiens, PANC-1, 72 h; for viability at 2.8 µM: read-out: Cell Viability (% of Control) 2.8 µM, PANC-1; for viability at 8.3 µM: read-out: Cell Viability (% of Control) 8.3 µM, PANC-1; for viability at 25 µM: read-out: Cell Viability (% of Control) 25 µM, PANC-1; for Cell Viability (% of Control) 2.8 µM / Cell Viability (% of Control) 8.3 µM / Cell Viability (% of Control) 25 µM: PANC-1.

Read-outs that look alike come from different tables or passages of the source.

What is called viability is a read-out of living cells in per cent, often relative to untreated cells. For `NCc1cccc(CN2C(=O)C3=C(CCN(Cc4ccc(-n5cc(-c6ccccc6)nn5)cc4)C3)N3CCN=C23)c1` [37b], in data set [1] (second-set screening), the viability at 2.8 µM is 108 ± 7%, the viability at 8.3 µM was 91 ± 12% and the viability at 25 µM was 13 ± 6%. For the same compound, in data set [2] (second-set screening), the viability at 2.8 µM turned out to be 110 ± 5%, the viability at 8.3 µM was 113 ± 3% and the viability at 25 µM is 5 ± 6%.

For the compound `NCC#Cc1cccc(CN2C(=O)C3=C(CCN(Cc4ccc(-n5cc(-c6cccc(F)c6)nn5)cc4)C3)N3CCN=C23)c1` [36a], in data set [1] (second-set screening), the viability at 2.8 µM was 105 ± 20%, the viability at 8.3 µM was determined as 6 ± 5% and the viability at 25 µM stood at 0%. Moreover, in data set [2] (second-set screening), the viability at 2.8 µM came out at 116 ± 8%, the viability at 8.3 µM worked out at 0% and the viability at 25 µM was determined as 0%.

Regarding `NCC#Cc1cccc(CN2C(=O)C3=C(CCN(Cc4cccc(-n5cc(-[c-]6cccc6)nn5)c4)C3)N3CCN=C23)c1.[Fe+2].c1cc[cH-]c1` [4a], in data set [1] (first-set screening), the “Cell Viability (% of Control) 2.8 µM” value is listed as 102 ± 1 % of Control, the “Cell Viability (% of Control) 8.3 µM” value is listed as 77 ± 3 % of Control and the “Cell Viability (% of Control) 25 µM” value is listed as 0 ± 0 % of Control. Further, in data set [2] (first-set screening), the “Cell Viability (% of Control) 2.8 µM” value is 91 ± 4 % of Control, the “Cell Viability (% of Control) 8.3 µM” value is listed as 73 ± 9 % of Control and the “Cell Viability (% of Control) 25 µM” value is on record as 0 ± 0 % of Control.

With `NCC#Cc1ccc(CN2C(=O)C3=C(CCN(Cc4ccc(-n5cc(-c6cccc(N)c6)nn5)cc4)C3)N3CCN=C23)cc1` [1a], in data set [1] (first-set screening), the viability at 2.8 µM worked out at 106 ± 2%, the viability at 8.3 µM is 99 ± 2% and the viability at 25 µM is 10%. In data set [2] (first-set screening), the viability at 2.8 µM turned out to be 100 ± 5%, the viability at 8.3 µM was determined as 93 ± 7% and the viability at 25 µM was found to be 3 ± 2%.

Consider `NCC#Cc1cccc(CN2C(=O)C3=C(CCN(Cc4ccc(NC(=O)[c-]5cccc5)cc4)C3)N3CCN=C23)c1.[Fe+2].c1cc[cH-]c1` [23a], for which, in data set [1] (second-set screening), the “Cell Viability (% of Control) 2.8 µM” value is on record as 109 ± 10 % of Control, the “Cell Viability (% of Control) 8.3 µM” value was 107 ± 7 % of Control and the “Cell Viability (% of Control) 25 µM” value is given as 61 ± 20 % of Control. For the same compound, in data set [2] (second-set screening), the “Cell Viability (% of Control) 2.8 µM” value is 98 ± 7 % of Control, the “Cell Viability (% of Control) 8.3 µM” value was 104 ± 10 % of Control and the “Cell Viability (% of Control) 25 µM” value is 52 ± 55 % of Control.

Take `O=C1C2=C(CCN(Cc3ccc(-n4cc(-c5ccccc5)nn4)cc3)C2)N2CCN=C2N1Cc1ccc(F)cc1` [16f]: in data set [1] (first-set screening), the viability at 2.8 µM was found to be 100 ± 1%, the viability at 8.3 µM was found to be 94 ± 1% and the viability at 25 µM was 77 ± 4%. In data set [2] (first-set screening), the viability at 2.8 µM was 81 ± 3%, the viability at 8.3 µM is 68 ± 4% and the viability at 25 µM is 60 ± 1%.

For `O=C1C2=C(CCN(Cc3cccc(-n4cc(-c5ccccc5)nn4)c3)C2)N2CCN=C2N1Cc1ccc(C#CCO)cc1` [3d], in data set [1] (first-set screening), the viability at 2.8 µM worked out at 87 ± 1%, the viability at 8.3 µM stood at 29 ± 2% and the viability at 25 µM amounted to 23 ± 3%. In data set [2] (first-set screening), the viability at 2.8 µM stood at 85 ± 1%, the viability at 8.3 µM came to 55 ± 6% and the viability at 25 µM turned out to be 46 ± 7%.

`O=C1C2=C(CCN(Cc3cccc(-n4cc(-c5ccccc5)nn4)c3)C2)N2CCN=C2N1Cc1cccc(C#CCO)c1` [4d]: in data set [1] (first-set screening), the viability at 2.8 µM was 37 ± 1%, the viability at 8.3 µM is 27 ± 3% and the viability at 25 µM came out at 23 ± 3%. For the same compound, in data set [2] (first-set screening), the viability at 2.8 µM came out at 74 ± 3%, the viability at 8.3 µM turned out to be 60 ± 2% and the viability at 25 µM came to 53 ± 8%.

Turning to `O=C1C2=C(CCN(Cc3ccc(-n4cc(-c5ccccc5)nn4)cc3)C2)N2CCN=C2N1Cc1cccc(C#CCO)c1` [2d], in data set [1] (first-set screening), the viability at 2.8 µM is 99 ± 7%, the viability at 8.3 µM came out at 90 ± 10% and the viability at 25 µM amounted to 78 ± 6%. Besides, in data set [2] (first-set screening), the viability at 2.8 µM worked out at 100 ± 8%, the viability at 8.3 µM worked out at 87 ± 1% and the viability at 25 µM was found to be 81%.

As to `CN(C)CC#Cc1cccc(CN2C(=O)C3=C(CCN(Cc4ccc(-n5cc(-[c-]6cccc6)nn5)cc4)C3)N3CCN=C23)c1.[Fe+2].c1cc[cH-]c1` [39a], in data set [1] (second-set screening), the “Cell Viability (% of Control) 2.8 µM” value is on record as 99 ± 9 % of Control, the “Cell Viability (% of Control) 8.3 µM” value is listed as 45 ± 52 % of Control and the “Cell Viability (% of Control) 25 µM” value is listed as 13 ± 15 % of Control. For the same compound, in data set [2] (second-set screening), the “Cell Viability (% of Control) 2.8 µM” value is reported as 112 ± 7 % of Control, the “Cell Viability (% of Control) 8.3 µM” value is on record as 62 ± 72 % of Control and the “Cell Viability (% of Control) 25 µM” value is on record as 35 ± 41 % of Control.

Regarding `O=C1C2=C(CCN(Cc3ccc(-n4cc(-[c-]5cccc5)nn4)cc3)C2)N2CCN=C2N1Cc1cccc(C#CCN2CCCCC2)c1.[Fe+2].c1cc[cH-]c1` [40a], in data set [1] (second-set screening), the “Cell Viability (% of Control) 2.8 µM” value is 105 ± 5 % of Control, the “Cell Viability (% of Control) 8.3 µM” value was 81 ± 21 % of Control and the “Cell Viability (% of Control) 25 µM” value is given as 45 ± 34 % of Control. Besides, in data set [2] (second-set screening), the “Cell Viability (% of Control) 2.8 µM” value is reported as 119 ± 4 % of Control, the “Cell Viability (% of Control) 8.3 µM” value is recorded as 72 ± 61 % of Control and the “Cell Viability (% of Control) 25 µM” value was 61 ± 67 % of Control.

With `O=C1C2=C(CCN(Cc3ccc(-n4cc(-c5ccccc5)nn4)cc3)C2)N2CCN=C2N1Cc1cccc(C#CCN2CCCCC2)c1` [40b], in data set [1] (second-set screening), the viability at 2.8 µM was 92 ± 9%, the viability at 8.3 µM came out at 60 ± 3% and the viability at 25 µM is 24 ± 11%. In addition, in data set [2] (second-set screening), the viability at 2.8 µM was 125 ± 5%, the viability at 8.3 µM amounted to 12 ± 10% and the viability at 25 µM was 1 ± 1%.
